Data from patent publication EP0554004A2, “Cephem compounds and antibacterial agents” (KATAYAMA SEIYAKUSYO CO. Ltd., priority 1992, dated 1993).

Key:
clinically isolated MRSA = test: Antibacterial potency against clinically isolated MRSA (Test Example 4); format: cell-based, methicillin-resistant Staphylococcus aureus; settings: Staphylococcus aureus, 52 strains of clinically isolated MRSA; for MIC50: concentration inhibiting growth of 50% of the strains (Test Example 4), read-out: MIC50; for MIC90: concentration inhibiting growth of 90% of the strains (Test Example 4), read-out: MIC90
Method: 52 strains of clinically isolated MRSA were used, and MIC was determined for each of the strains according to the standard method of the Japan Chemotherapical Society as in Test Example 1. The minimum growth inhibitory concentration which inhibited growth of 50% of the strains tested was expressed as MIC50 (µg/ml), and the minimum growth inhibitory concentration which inhibited growth of 90% of the strains was expressed as MIC90 (µg/ml).
MIC 50 and MIC 90 were determined for each of the 52 strains of clinically isolated MRSA according to the same method as used in Test Example 2.
VCM (vancomycin) was used as control agent.

M. luteus ATCC 9341 = test: MIC against standard strains (Test Example 3); format: cell-based; settings: Micrococcus luteus, ATCC9341; M. luteus ATCC 9341 (Test Example 3); read-out: MIC
Method: (§1) By using each test strain cultured overnight at 37°C in a Muller-Hinton broth, there was prepared a bacterial solution with a bacterial cell population of 1 x 10^6 CFU/mi of the same bouillon. The bacterial solution was inoculated into the Muller-Hinton agar media each containing respectively one test agent and, after overnight incubation at 37°C, the minimum concentration that inhibited growth of the bacteria was determined and shown as MIC also in Table 1.
(§2) The minimum growth inhibitory concentration was determined for each of the 21 standard strains shown in Table 3, according to the same method as used in Test Example 1.
(§3) In the test, FMOX (flomoxef), CTM (cefotiam) and CEZ (cefazolin) were used as control agents.

P. vulugaris OX-19 = test: MIC against standard strains (Test Example 3); format: cell-based; settings: P. vulugaris OX-19 (Test Example 3); read-out: MIC
Method: as §1, §2, §3

E. coli NIHJ JC-2 = test: MIC against standard strains (Test Example 3); format: cell-based; settings: Escherichia coli, NIHJJC2; E. coli NIHJ JC-2 (Test Example 3); read-out: MIC
Method: as §1, §2, §3

S. aureus 195 = test: MIC against standard strains (Test Example 3); format: cell-based; settings: Staphylococcus aureus; S. aureus 195 (MRSA) (Test Example 3); read-out: MIC
Method: as §1, §2, §3

E. coli CSH2 (RK1) = test: MIC against standard strains (Test Example 3); format: cell-based; settings: Escherichia coli
Method: as §1, §2, §3

S. aureus Smith = test: MIC against standard strains (Test Example 3); format: cell-based; settings: Staphylococcus aureus; S. aureus Smith (Test Example 3); read-out: MIC
Method: as §1, §2, §3

S. aureus 209p JC-1 = test: MIC against standard strains (Test Example 3); format: cell-based; settings: Staphylococcus aureus; S. aureus 209p JC-1 (Test Example 3); read-out: MIC
Method: as §1, §2, §3

B. subtilis ATCC6633 = test: MIC against standard strains (Test Example 3); format: cell-based; settings: Bacillus subtilis; B. subtilis ATCC6633 (Test Example 3); read-out: MIC
Method: as §1, §2, §3

S. marcescens IAM1184 = test: MIC against standard strains (Test Example 3); format: cell-based; settings: Serratia marcescens; S. marcescens IAM1184 (Test Example 3); read-out: MIC
Method: as §1, §2, §3

A. calcoaceticos T59 = test: MIC against standard strains (Test Example 3); format: cell-based; settings: A. calcoaceticos T59 (Test Example 3); read-out: MIC
Method: as §1, §2, §3

K. pneumoniae No. 42 = test: MIC against standard strains (Test Example 3); format: cell-based; settings: Klebsiella pneumoniae; K. pneumoniae No. 42 (Test Example 3); read-out: MIC
Method: as §1, §2, §3

S. epidemidis IAM1296 = test: MIC against standard strains (Test Example 3); format: cell-based; settings: S. epidemidis IAM1296 (Test Example 3); read-out: MIC
Method: as §1, §2, §3

S. aureus 167 = test: MIC against standard strains (Test Example 3); format: cell-based; settings: Staphylococcus aureus; S. aureus 167 (MRSA) (Test Example 3); read-out: MIC
Method: as §1, §2, §3

C. freundii ATCC8090 = test: MIC against standard strains (Test Example 3); format: cell-based; settings: Citrobacter freundii; C. freundii ATCC8090 (Test Example 3); read-out: MIC
Method: as §1, §2, §3

P. mirabilis IFO3849 = test: MIC against standard strains (Test Example 3); format: cell-based; settings: Proteus mirabilis; P. mirabilis IFO3849 (Test Example 3); read-out: MIC
Method: as §1, §2, §3

M. Morganii IFO3848 = test: MIC against standard strains (Test Example 3); format: cell-based; settings: Morganella morganii; M. Morganii IFO3848 (Test Example 3); read-out: MIC
Method: as §1, §2, §3

E. cloacae ATCC13407 = test: MIC against standard strains (Test Example 3); format: cell-based; settings: Enterobacter cloacae; E. cloacae ATCC13407 (Test Example 3); read-out: MIC
Method: as §1, §2, §3

P. aeruginosa NCTC10490 = test: MIC against standard strains (Test Example 3); format: cell-based; settings: Pseudomonas aeruginosa; P. aeruginosa NCTC10490 (Test Example 3); read-out: MIC
Method: as §1, §2, §3

A. faecalis ATCC3750 = test: MIC against standard strains (Test Example 3); format: cell-based; settings: Alcaligenes faecalis; A. faecalis ATCC3750 (Test Example 3); read-out: MIC
Method: as §1, §2, §3

E. coli CSH2 (RE45) = test: MIC against standard strains (Test Example 3); format: cell-based; settings: Escherichia coli
Method: as §1, §2, §3

K. pneumoniae IFO3317 = test: MIC against standard strains (Test Example 3); format: cell-based; settings: Klebsiella pneumoniae; K. pneumoniae IFO3317 (Test Example 3); read-out: MIC
Method: as §1, §2, §3

Structure (SMILES)	MIC50 (clinically isolated MRSA) [µg/mL]	MIC90 (clinically isolated MRSA) [µg/mL]	MIC (M. luteus ATCC 9341) [µg/mL]	MIC (P. vulugaris OX-19) [µg/mL]	MIC (E. coli NIHJ JC-2) [µg/mL]	MIC (S. aureus 195) [µg/mL]	MIC (E. coli CSH2 (RK1)) [µg/mL]	MIC (S. aureus Smith) [µg/mL]	MIC (S. aureus 209p JC-1) [µg/mL]	MIC (B. subtilis ATCC6633) [µg/mL]	MIC (S. marcescens IAM1184) [µg/mL]	MIC (A. calcoaceticos T59) [µg/mL]	MIC (K. pneumoniae No. 42) [µg/mL]	MIC (S. epidemidis IAM1296) [µg/mL]	MIC (S. aureus 167) [µg/mL]	MIC (C. freundii ATCC8090) [µg/mL]	MIC (P. mirabilis IFO3849) [µg/mL]	MIC (M. Morganii IFO3848) [µg/mL]	MIC (E. cloacae ATCC13407) [µg/mL]	MIC (P. aeruginosa NCTC10490) [µg/mL]	also measured
Nc1nc(/C(=N/O)C(=O)N[C@@H]2C(=O)N3C(C(=O)[O-])=C(C[n+]4cccc(-c5csc(N)n5)c4)CS[C@H]23)cs1 [Compound (9), 7β-[2-(2-aminothiazol-4-yl)-2-syn-hydroxyiminoacetamido]-3-[[3-(2-aminothiazol-4-yl)-1-pyridinio]methyl]-3-cephem-4-carboxylic acid chloride]	1.48	2.92	0.05	0.2	0.2	1.56	0.39	0.2	0.2	0.2	0.39	12.5	0.78	0.05	3.13	0.2	0.39	0.1	0.78	3.13	MIC (A. faecalis ATCC3750): 1.56 µg/mL; MIC (E. coli CSH2 (RE45)): 0.39 µg/mL; MIC (K. pneumoniae IFO3317): 0.2 µg/mL
CNc1nc(-c2cc[n+](CC3=C(C(=O)[O-])N4C(=O)[C@@H](NC(=O)/C(=N\O)c5csc(N)n5)[C@H]4SC3)cc2)cs1 [Compound (12), 7β-[2-(2-aminothiazol-4-yl)-2-syn-hydroxyiminoacetamido]-3-[[4-(2-methylaminothiazol-4-yl)-1-pyridinio]methyl]-3-cephem-4-carboxylic acid chloride]	1.86	4.61	0.05	0.1	0.2	3.13	0.39	0.39	0.39	0.2	0.78	50	0.78	0.2	5.25	0.39	0.78	0.05	1.56	12.5	MIC (A. faecalis ATCC3750): 1.56 µg/mL; MIC (E. coli CSH2 (RE45)): 0.2 µg/mL; MIC (K. pneumoniae IFO3317): 0.1 µg/mL
Cc1nc(-c2ccc[n+](CC3=C(C(=O)[O-])N4C(=O)[C@@H](NC(=O)/C(=N\O)c5csc(N)n5)[C@H]4SC3)c2)cs1 [Compound (11), 7β-[2-(2-aminothiazol-4-yl)-2-syn-hydroxyiminoacetamido]-3-[[3-(2-methylthiazol-4-yl)-I-pyridinio]methyl]-3-cephem-4-carboxylic acid chloride]	1.85	3.04	0.05	0.2	0.39	1.56	0.78	0.39	0.2	0.2	0.39	25	0.78	0.1	3.13	0.39	0.78	0.1	3.13	6.25	MIC (A. faecalis ATCC3750): 3.13 µg/mL; MIC (E. coli CSH2 (RE45)): 0.39 µg/mL; MIC (K. pneumoniae IFO3317): 0.2 µg/mL
CNc1nc(-c2ccc[n+](CC3=C(C(=O)[O-])N4C(=O)[C@@H](NC(=O)/C(=N\O)c5csc(N)n5)[C@H]4SC3)c2)cs1 [Compound (10), 7β-[2-(2-aminothiazol-4-yl)-2-syn-hydroxyiminoacetamido)-3-[[3-(2-methylaminothiazol-4-yl)-1-pyridinio]methyl]-3-cephem-4-carboxylic acid chloride]	4.04	8.37	0.1	0.39	1.56	3.13	3.13	0.78	0.39	0.39	3.13	50	6.25	0.2	12.5	1.56	3.13	0.2	12.5	25	MIC (A. faecalis ATCC3750): 6.25 µg/mL; MIC (E. coli CSH2 (RE45)): 1.56 µg/mL; MIC (K. pneumoniae IFO3317): 0.39 µg/mL
CCN(CC)C(=O)c1ccc[n+](CC2=C(C(=O)[O-])N3C(=O)[C@@H](NC(=O)/C(=N\O)c4csc(N)n4)[C@H]3SC2)c1 [Compound (14), 7β-[2-(2-aminothiazol-4-yl)-2-syn-hydroxyiminoacetamido]-3-[(3-N,N-diethylcarbamoyl-I-pyridinio)methyl]-3-cephem-4-carboxylic acid chloride]	6.77	11.8	0.2	0.78	0.78	6.25	3.13	0.78	0.78	0.39	0.78	12.5	3.13	0.39	12.5	0.78	1.56	0.39	3.13	6.25	MIC (A. faecalis ATCC3750): 3.13 µg/mL; MIC (E. coli CSH2 (RE45)): 0.78 µg/mL; MIC (K. pneumoniae IFO3317): 0.78 µg/mL
